# Results taken from paper PMC7093416, “Selective USP7 inhibition elicits cancer cell killing through a p53-dependent mechanism” (Scientific Reports, 2020).
# Tested on: panel of 484 cancer cell lines
# Test: PRISM cancer cell line profiling, 5 days
# Assay type: cell-based
# Parameters: AUC: unit not given beside the values
# Procedure: Cancer cell line profiling was performed using the Broad’s PRISM platform. Cell treatment and data analysis were performed as described in Yu et al[42]. Raw Luminex signal was converted to AUC values for each cell line as described. The resulting AUC profile for each compound was modeled against DepMap using the limma package in R[71]. Because hotspot mutation analysis was performed against DepMap, TP53 annotations in Fig. 6c,d are directly from DepMap.
smiles,measurement,setting,value
CN1CCN(CCC(=O)Nc2ccc3c(=O)n(CC4(O)CCN(C(=O)[C@H](CCCNC(=O)c5ccc6c(Cl)c7c(nc6c5)CCCC7)Cc5ccccc5)CC4)cnc3c2)CC1 [XL177B],AUC,RT112_URINARY_TRACT,0.9816
same,AUC,RVH421_SKIN,0.8995
same,AUC,S117_SOFT_TISSUE,0.9955
same,AUC,SBC5_LUNG,1.053
same,AUC,SCABER_URINARY_TRACT,1.101
same,AUC,SCC25_UPPER_AERODIGESTIVE_TRACT,0.9004
same,AUC,SF126_CENTRAL_NERVOUS_SYSTEM,0.9271
same,AUC,SF295_CENTRAL_NERVOUS_SYSTEM,1.235
same,AUC,SF539_CENTRAL_NERVOUS_SYSTEM,0.9498
same,AUC,SH4_SKIN,0.9224
same,AUC,SH10TC_STOMACH,1.086
same,AUC,SIMA_AUTONOMIC_GANGLIA,1.191
same,AUC,SJSA1_BONE,1.13
same,AUC,SKES1_BONE,0.9809
same,AUC,SKHEP1_LIVER,0.9481
same,AUC,SKLU1_LUNG,1.195
same,AUC,SKMEL2_SKIN,0.945
same,AUC,SKMEL3_SKIN,1.224
same,AUC,SKMEL5_SKIN,1.137
same,AUC,SKMEL24_SKIN,1.275
same,AUC,SKMEL30_SKIN,1.1049
same,AUC,SKMES1_LUNG,1.035
same,AUC,SKNAS_AUTONOMIC_GANGLIA,1.162
same,AUC,SKNBE2_AUTONOMIC_GANGLIA,0.9661
same,AUC,SKOV3_OVARY,1.113
same,AUC,SKUT1_SOFT_TISSUE,1.098
same,AUC,SNB75_CENTRAL_NERVOUS_SYSTEM,1.029
same,AUC,SNGM_ENDOMETRIUM,1.214
same,AUC,SNU46_UPPER_AERODIGESTIVE_TRACT,1.023
same,AUC,SNU61_LARGE_INTESTINE,1.357
same,AUC,SNU81_LARGE_INTESTINE,1.469
same,AUC,SNU213_PANCREAS,0.9253
same,AUC,SNU245_BILIARY_TRACT,1.172
same,AUC,SNU308_BILIARY_TRACT,1.2193
same,AUC,SNU398_LIVER,1.038
same,AUC,SNU407_LARGE_INTESTINE,0.8767
same,AUC,SNU410_PANCREAS,1.127
same,AUC,SNU423_LIVER,1.115
same,AUC,SNU449_LIVER,0.9807
same,AUC,SNU466_CENTRAL_NERVOUS_SYSTEM,0.8672
same,AUC,SNU601_STOMACH,1.056
same,AUC,SNU668_STOMACH,0.9502
same,AUC,SNU685_ENDOMETRIUM,0.9823
same,AUC,SNU719_STOMACH,1.037
same,AUC,SNU738_CENTRAL_NERVOUS_SYSTEM,1.115
same,AUC,SNU761_LIVER,1.164
same,AUC,SNU840_OVARY,1.115
same,AUC,SNU869_BILIARY_TRACT,1.118
same,AUC,SNU886_LIVER,1.231
same,AUC,SNU1041_UPPER_AERODIGESTIVE_TRACT,1.134
same,AUC,SNU1066_UPPER_AERODIGESTIVE_TRACT,1.18
same,AUC,SNU1076_UPPER_AERODIGESTIVE_TRACT,0.9825
same,AUC,SNU1077_ENDOMETRIUM,1.083
same,AUC,SNU1079_BILIARY_TRACT,1.166
same,AUC,SNU1105_CENTRAL_NERVOUS_SYSTEM,1.105
same,AUC,SNU1196_BILIARY_TRACT,1.09
same,AUC,SNU1214_UPPER_AERODIGESTIVE_TRACT,0.9564
same,AUC,SNUC2A_LARGE_INTESTINE,1.042
same,AUC,SNUC4_LARGE_INTESTINE,1.117
same,AUC,SNUC5_LARGE_INTESTINE,1.097
same,AUC,SQ1_LUNG,1.099
same,AUC,SUIT2_PANCREAS,1.021
same,AUC,SW480_LARGE_INTESTINE,1.084
same,AUC,SW579_THYROID,1.209
same,AUC,SW620_LARGE_INTESTINE,1.165
same,AUC,SW780_URINARY_TRACT,1.236
same,AUC,SW837_LARGE_INTESTINE,1.0717
same,AUC,SW900_LUNG,1.235
same,AUC,SW948_LARGE_INTESTINE,1.132
same,AUC,SW1088_CENTRAL_NERVOUS_SYSTEM,1.121
same,AUC,SW1271_LUNG,1.015
same,AUC,SW1353_BONE,0.6793
same,AUC,SW1573_LUNG,1.097
same,AUC,SW1710_URINARY_TRACT,1.102
same,AUC,SW1990_PANCREAS,1.083
same,AUC,T3M10_LUNG,1.12
same,AUC,T24_URINARY_TRACT,1.071
same,AUC,T47D_BREAST,1.066
same,AUC,T98G_CENTRAL_NERVOUS_SYSTEM,0.9969
same,AUC,TCCPAN2_PANCREAS,1.118
same,AUC,TCCSUP_URINARY_TRACT,1.104
same,AUC,TE1_OESOPHAGUS,1.328
same,AUC,TE4_OESOPHAGUS,1.033
same,AUC,TE5_OESOPHAGUS,0.9565
same,AUC,TE6_OESOPHAGUS,1.06
same,AUC,TE8_OESOPHAGUS,0.9218
same,AUC,TE9_OESOPHAGUS,1.298
same,AUC,TE10_OESOPHAGUS,0.9856
same,AUC,TE11_OESOPHAGUS,1.076
same,AUC,TEN_ENDOMETRIUM,0.9874
same,AUC,TM31_CENTRAL_NERVOUS_SYSTEM,1.105
same,AUC,TM87_SOFT_TISSUE,1.039
same,AUC,TOV21G_OVARY,0.7718
same,AUC,TOV112D_OVARY,0.9778
same,AUC,TT2609C02_THYROID,1.023
same,AUC,TT_OESOPHAGUS,1.189
same,AUC,TT_THYROID,0.9532
same,AUC,TUHR4TKB_KIDNEY,1.093
same,AUC,U2OS_BONE,1.264
same,AUC,U118MG_CENTRAL_NERVOUS_SYSTEM,1.3332
same,AUC,U251MG_CENTRAL_NERVOUS_SYSTEM,1.04
same,AUC,UACC62_SKIN,0.9925
same,AUC,UACC257_SKIN,0.9688
same,AUC,UBLC1_URINARY_TRACT,1.0896
same,AUC,UMUC1_URINARY_TRACT,1.045
same,AUC,UO31_KIDNEY,1.143
same,AUC,VMCUB1_URINARY_TRACT,0.9508
same,AUC,VMRCRCW_KIDNEY,1.069
same,AUC,VMRCRCZ_KIDNEY,1.083
same,AUC,WM88_SKIN,1.093
same,AUC,WM793_SKIN,1.133
same,AUC,WM983B_SKIN,1.143
same,AUC,WM1799_SKIN,0.7611
same,AUC,WM2664_SKIN,1.168
same,AUC,YAPC_PANCREAS,1.439
same,AUC,YD8_UPPER_AERODIGESTIVE_TRACT,1.127
same,AUC,YD10B_UPPER_AERODIGESTIVE_TRACT,0.9769
same,AUC,YD15_SALIVARY_GLAND,0.9723
same,AUC,YD38_UPPER_AERODIGESTIVE_TRACT,1.117
same,AUC,YH13_CENTRAL_NERVOUS_SYSTEM,1.068
same,AUC,YKG1_CENTRAL_NERVOUS_SYSTEM,1.107
same,AUC,ZR751_BREAST,0.9538
